Measurements from PubChem BioAssay (NCI).
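Following 48 hours of exposure in 96-well plates, responses at five concentrations were used to interpolate endpoints linearly. GI50 = concentration required for 50% inhibition of growth. TGI denotes the concentration required for complete inhibition of growth.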

Experiments:
Test in all cases: growth of human tumour cells (NCI), 48 h
U251 CNS = test system: U251 CNS
SF-539 CNS = test system: SF-539 CNS
SF-268 CNS = test system: SF-268 CNS
SK-MEL-28 melanoma = test system: SK-MEL-28 melanoma
RPMI-8226 leukemia = test system: RPMI-8226 leukemia
COLO 205 colon = test system: COLO 205 colon
NCI-H522 lung = test system: NCI-H522 lung
OVCAR-3 ovarian = test system: OVCAR-3 ovarian
HOP-92 NSCLC = test system: HOP-92 NSCLC
M14 melanoma = test system: M14 melanoma

Row | Structure (SMILES) | TGI (U251 CNS) | TGI (SF-539 CNS) | TGI (SF-268 CNS) | TGI (SK-MEL-28 melanoma) | TGI (RPMI-8226 leukemia) | TGI (COLO 205 colon) | TGI (NCI-H522 lung) | TGI (OVCAR-3 ovarian) | TGI (HOP-92 NSCLC) | TGI (M14 melanoma) | GI50 (U251 CNS) | GI50 (SF-539 CNS) | GI50 (SF-268 CNS) | GI50 (SK-MEL-28 melanoma) | GI50 (RPMI-8226 leukemia) | GI50 (COLO 205 colon) | GI50 (NCI-H522 lung) | GI50 (OVCAR-3 ovarian) | GI50 (HOP-92 NSCLC) | GI50 (M14 melanoma)
1 | COc1cccc2c1C1=CC(=O)CCC1C(C)(C)O2 (stereo not given) | > 100 µM | > 100 µM | > 100 µM | > 100 µM | 50.4 µM | > 100 µM | > 100 µM | > 100 µM | > 100 µM | > 100 µM |  |  |  |  |  |  |  |  |  | 
2 | CCc1ccc(C2=C(O)C(=O)C(c3ccc(CC)cc3)=C(O)C2=O)cc1 | 10.1 µM | 4.45 µM | 6.44 µM | 8.89 µM | 6.43 µM | 5.36 µM | 4.61 µM | 3.13 µM | 4.33 µM | 4.54 µM | 2.26 µM | 1.8 µM | 2.14 µM | 2.65 µM | 1.81 µM | 1.69 µM | 1.51 µM | 1.57 µM | 1.24 µM | 1.74 µM
3 | CN(C)CCNC(=O)c1cc([N+](=O)[O-])cc2ccc(-c3ccccc3)nc12 | 32 µM | 27.2 µM | 50 µM | 27.4 µM | 70.2 µM | 21.6 µM | 17.2 µM | 54.3 µM | 27.4 µM | > 100 µM |  |  |  |  |  |  |  |  |  | 
4 | Nc1ccc2c(c1)[O][Sn]([c]1ccccc1)([c]1ccccc1)[O]C2=O | 16.3 µM | 18.8 µM | 21.2 µM | 12.4 µM | 10.7 µM | 13.2 µM | 2.36 µM | 15.9 µM | 7.11 µM | 25.4 µM | 8.6 µM | 9.5 µM | 7.63 µM | 5.02 µM | 2.5 µM | 6.58 µM | 0.592 µM | 6.79 µM | 2.59 µM | 11.2 µM
5 | OC1CCC(Oc2cccc3cnc(Nc4ccc5nc[nH]c5c4)nc23)CC1 (stereo not given) | 15.7 µM | 0.708 µM | 12.8 µM | 6.83 µM | 0.659 µM | 0.886 µM | 5.3 µM | 19.4 µM | 29.4 µM | 3.11 µM | 0.428 µM | 0.215 µM | 0.413 µM | 0.791 µM | 0.219 µM | 0.21 µM | 1.13 µM | 0.423 µM | 0.467 µM | 0.333 µM
6 | COc1cc(C(C#N)NNC(=O)c2ccccc2O)ccc1O (stereo not given) | > 100 µM | 8.73 µM | > 100 µM | > 100 µM | > 100 µM | > 100 µM | 28.7 µM | 48.5 µM | 97.3 µM | > 100 µM |  |  |  |  |  |  |  |  |  | 
7 | Cc1cc(O)cc(C)c1/C=C/c1cncc(C(=O)N(C)C)c1 | > 25 µM | > 25 µM | > 25 µM | > 25 µM | > 25 µM | > 25 µM | > 25 µM | > 25 µM | > 25 µM | > 25 µM | > 25 µM | > 25 µM | > 25 µM | > 25 µM | > 25 µM | > 25 µM | > 25 µM | > 25 µM | > 25 µM | > 25 µM
